Key:
LUHMES cells [1] = experiment: Protective effects against annonacin toxicity, calcein viability assay; format: cell-based, human; details: with 20 nM annonacin, glucose-reduced medium, 48 h; 40 μM Ki 696–2, 1 μM HPP-D, 15 μM ezetimibe, 4 μM licochalcone A; most protective or highest non-toxic concentration for the others
Protocol: The calcein AM green dye (Thermo Fisher Scientific) was diluted in DMSO to obtain a 1 mM stock solution. The stock solution was further diluted in HBSS (Hanks' balanced salt solution), immediately before incubation, to achieve a final working concentration of 1 μM in the well. The medium was removed, the cells were washed once with warm HBSS, and 200 µl of calcein working solution was added to each well. For background correction, 200 µl of calcein working solution was added to a well without cells (background control). After 30 min of incubation at 37 °C, the calcein solution was removed and the cells were washed once with HBSS. Cells were lysed in a 200 µl volume of 1% Triton™ X-100 in PBS (phosphate buffered saline) and the lysate transferred to a 96‐well black plate for the readout. The fluorescence signal was measured on a FLUOstar® Omega plate reader (BMG LabTech, Ortenberg, Germany) at λ Ex/Em = 485/530 nm and data was analyzed with the MARS data analysis software (BMG LabTech). For background correction, we subtracted the background control signal from the measured values of all experimental conditions. Data were expressed as percentage of viability relative to the control (DMSO-treated) condition.
For pharmacological treatments, we acquired several previously described Nrf2-pathway activators: ezetimibe (Cayman), licochalcone A (MedChem Express, New Jersey, NJ, USA), bardoxolone methyl, saracatinib and PP2 (AbMole BioScience Inc., Houston, TX, USA). The enantiomers Ki 696–1 and Ki 696–2, and the compound HPP-D were kindly provided by Orion Pharma (Espoo, Finland). All compounds were dissolved in DMSO and stored in small aliquots at -80 °C to avoid freeze–thaw cycles. Compound general toxicity was determined on PLO/FN double-coated 48-well microplates as follows: after 4 days of differentiation, LUHMES cells were incubated with the different Nrf2-pathway activators at concentrations ranging from 1 nM to 100 µM, for 96 h. The cell viability was assessed by calcein assay on day 8 of differentiation. Non-toxic concentrations of the Nrf2-pathway activators were selected and used in the pharmacological treatments, in combination with 20 nM of annonacin, in glucose-reduced differentiation medium, over a period of 48 h, similar to an in vitro model reported before. The protective effects of Nrf2-pathway activators against annonacin toxicity were determined in terms of cell viability with the calcein assay.

LUHMES cells [2] = experiment: Neurite arborization analysis (Tuj-1 immunofluorescence); format: cell-based, human; details: 48 h
Protocol: Cells were seeded in differentiation medium, onto 24-well microplates containing PLO/FN coated 13 mm Ø coverslips, and submitted to the described pharmacological treatments for 48 h. After this period, the medium was removed and cells were washed once with warm HBSS, and fixed with 4% PFA (paraformaldehyde) in PBS, for 20 min at RT (room temperature). After fixation, cells were washed twice with PBS and permeabilized with 0.1% Triton™ X-100 in PBS, for 20 min at RT. Next, cells were blocked in 1.5% NHS (normal horse serum) in PBS, for 1 h at RT, and incubated overnight with 1:1,000 Tuj-1 Alex 549-conjugated antibody (#801208, BioLegend, San Diego, CA, USA) in 1.5% NHS in PBS. After washing three times with PBS, cell nuclei were stained with 1:5,000 DAPI (4ʹ,6-diamidino-2-phenylindole, Thermo Fisher Scientific) in PBS, for 15 min at RT. The coverslips were mounted in mowiol, and left to dry for 24 h before imaging. Ten to fifteen images per condition, across triplicates, from different fields of view were taken on a fluorescence microscope Leica-DFC9000GTC (Leica) with 200 × magnification (20 × objective, 10 × intermediate magnification). Identical acquisition parameters were used for all images. Neurites density and arborization were quantified on TIFF exported images using the “neurite analyzer” plugin described before. The average value of the different view fields per experimental condition was taken and reported as fold change compared to the control (DMSO-treated) condition.

[3] = protective concentration of compound + 20 nM annonacin

SMILES: Cn1c(Nc2nc3ccc(C(F)(F)F)cc3s2)nc2cc(C(=O)NCCOCCO)ccc21 [HPP-D]
- reduction of annonacin toxicity (LUHMES cells [1]): 21%
- number of quadruple points (LUHMES cells [2]; [3]): approximately 0.50 fold over control
- total branch length (LUHMES cells [2]; [3]): significantly denser neural arborizations compared with the annonacin condition

SMILES: C=CC(C)(C)c1cc(/C=C/C(=O)c2ccc(O)cc2)c(OC)cc1O [licochalcone A]
- reduction of annonacin toxicity (LUHMES cells [1]): 34.6%
- number of quadruple points (LUHMES cells [2]; [3]): 0.81 fold over control
- total branch length (LUHMES cells [2]; [3]): significantly denser neural arborizations compared with the annonacin condition

SMILES: O=C1[C@H](CC[C@H](O)c2ccc(F)cc2)[C@@H](c2ccc(O)cc2)N1c1ccc(F)cc1 [ezetimibe]
- reduction of annonacin toxicity (LUHMES cells [1]): 33%
- number of quadruple points (LUHMES cells [2]; [3]): 0.71 fold over control
- total branch length (LUHMES cells [2]; [3]): significantly denser neural arborizations compared with the annonacin condition

SMILES: CCCCCCCCCCCC[C@@H](O)[C@H]1CC[C@H]([C@H](O)CCCC[C@H](O)CCCCC[C@@H](O)CC2=CC(C)OC2=O)O1 (some centres unmarked) [annonacin]
- number of quadruple points (LUHMES cells [2]; 20 nM annonacin alone): 0.31 fold over control
- total branch length (LUHMES cells [2]; 20 nM annonacin alone): 0.44 fold over control
